Twelve molecules from patent US11472805B2, “Tricyclic compounds and their use as phosphodiesterase inhibitors” (Pfizer Inc., priority 2015, dated 2022) can be followed below.

pIC50: −log10 of the molar value. Bounds are passed on as bounds.

Common to all, as to assay type: biochemical
One experiment addresses Human PDE4C1 (Homo sapiens (Human), UniProt Q08493). In words: PDE4C1 Scintillation Proximity Assay (SPA), inhibition of enzyme activity. The following applies: Table 10, geometric mean of 2-9 determinations unless otherwise indicated, read-out: Human PDE4C FL. The gist of the method:
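Recombinant insect-cell-expressed human PDE4C1 […] in 50 mM Tris pH 7.5, 1.3 mM MgCl2, 0.01% Brij with 1 μM cAMP (3H-cAMP tracer), ~20% substrate conversion, inhibitor concentration range. Incubated 30 min at 25° C; stopped with yttrium silicate SPA beads, read by scintillation after 8 h settling.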

In the next experiment the target is Human PDE4A3 (Homo sapiens (Human), UniProt P27815). In words: PDE4A3 Scintillation Proximity Assay (SPA), inhibition of enzyme activity. The following applies: Table 10, geometric mean of 2-9 determinations unless otherwise indicated, read-out: Human PDE4A FL. In outline:
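Recombinant human PDE4A3 expressed in insect cells, purified via Ni-NTA, anti-FLAG and size exclusion. SPA run 30 min at 25 °C in 50 mM Tris pH 7.5, 1.3 mM MgCl2, 0.01% Brij with 1 μM cAMP (20 nM 3H-cAMP), […], ~20% substrate conversion; stopped with yttrium silicate beads.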
(In a scintillation proximity assay essentially only radioactivity close to the scintillant gives light.)

The target of a further experiment is Human PDE4B1 (Homo sapiens (Human), UniProt Q07343, S133E/S654A/S659A/S661A). In words: PDE4B1 Scintillation Proximity Assay (SPA), inhibition of enzyme activity. The following applies: Table 10, geometric mean of 2-9 determinations unless otherwise indicated, read-out: Human PDE4B FL. The gist of the method: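 His-tagged enzyme from baculovirus-infected insect cells, Ni-NTA purified. SPA with 1 μM cAMP (20 nM 3H-cAMP tracer) in 50 mM Tris pH 7.5, 1.3 mM MgCl2, 0.01% Brij, […] PDE4B enzyme for ~20% substrate conversion; 30 min at 25 °C, stopped with yttrium silicate beads, read after 8 h settling.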
Human PDE4B1, sequence (Q07343 122-736 S133E/S654A/S659A/S661A): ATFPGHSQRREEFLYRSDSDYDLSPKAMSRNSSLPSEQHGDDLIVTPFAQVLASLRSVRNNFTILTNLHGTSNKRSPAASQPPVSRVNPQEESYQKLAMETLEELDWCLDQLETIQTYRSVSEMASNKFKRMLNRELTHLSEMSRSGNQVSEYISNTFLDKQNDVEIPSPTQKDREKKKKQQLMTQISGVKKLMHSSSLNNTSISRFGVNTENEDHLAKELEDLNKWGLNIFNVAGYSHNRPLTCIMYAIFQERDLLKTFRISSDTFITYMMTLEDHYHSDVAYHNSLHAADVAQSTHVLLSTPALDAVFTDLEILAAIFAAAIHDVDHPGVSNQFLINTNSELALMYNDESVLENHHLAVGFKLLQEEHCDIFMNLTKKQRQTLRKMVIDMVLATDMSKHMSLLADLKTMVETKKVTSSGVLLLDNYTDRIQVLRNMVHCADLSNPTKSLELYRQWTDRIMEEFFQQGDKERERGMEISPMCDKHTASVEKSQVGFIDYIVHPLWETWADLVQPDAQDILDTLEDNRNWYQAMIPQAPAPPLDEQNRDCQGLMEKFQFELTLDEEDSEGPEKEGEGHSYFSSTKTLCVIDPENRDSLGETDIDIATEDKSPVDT

The target in a further experiment is human PDE4D3 (Homo sapiens (Human), UniProt Q08499). In words: PDE4D3 Scintillation Proximity Assay (SPA), inhibition of enzyme activity. The following applies: Table 10, geometric mean of 2-9 determinations unless otherwise indicated, read-out: Human PDE4D FL. In outline:
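His-tagged human PDE4D3 (aa 50–672), expressed in insect cells, hydrolysed 1 μM cAMP (3H tracer plus cold) for 30 min at 25° C in 50 mM Tris pH 7.5, 1.3 mM MgCl2 and 0.01% Brij. Enzyme level was set for ~20% conversion. Product was read by yttrium silicate SPA beads after 8 h settling.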

Human PDE4C1, sequence (Q08493 2-712): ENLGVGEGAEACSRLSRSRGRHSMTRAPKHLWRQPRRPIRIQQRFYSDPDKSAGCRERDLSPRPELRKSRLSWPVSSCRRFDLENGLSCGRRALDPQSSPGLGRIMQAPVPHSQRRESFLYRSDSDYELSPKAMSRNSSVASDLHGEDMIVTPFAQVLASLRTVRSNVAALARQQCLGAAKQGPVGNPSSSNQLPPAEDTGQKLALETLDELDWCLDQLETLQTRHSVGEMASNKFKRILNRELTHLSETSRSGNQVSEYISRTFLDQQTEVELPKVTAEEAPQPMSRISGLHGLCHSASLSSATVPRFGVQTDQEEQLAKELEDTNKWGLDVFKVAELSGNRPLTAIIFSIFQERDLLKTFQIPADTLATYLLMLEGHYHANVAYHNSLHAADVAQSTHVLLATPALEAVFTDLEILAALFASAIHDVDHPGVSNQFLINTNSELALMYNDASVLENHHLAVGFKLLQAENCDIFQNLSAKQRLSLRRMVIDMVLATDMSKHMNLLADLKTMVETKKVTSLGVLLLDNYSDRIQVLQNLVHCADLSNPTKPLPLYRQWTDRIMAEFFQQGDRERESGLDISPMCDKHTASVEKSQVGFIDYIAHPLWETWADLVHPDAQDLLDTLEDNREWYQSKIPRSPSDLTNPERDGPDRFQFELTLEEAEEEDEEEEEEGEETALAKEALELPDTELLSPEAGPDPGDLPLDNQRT
human PDE4D3, sequence (Q08499 186-808): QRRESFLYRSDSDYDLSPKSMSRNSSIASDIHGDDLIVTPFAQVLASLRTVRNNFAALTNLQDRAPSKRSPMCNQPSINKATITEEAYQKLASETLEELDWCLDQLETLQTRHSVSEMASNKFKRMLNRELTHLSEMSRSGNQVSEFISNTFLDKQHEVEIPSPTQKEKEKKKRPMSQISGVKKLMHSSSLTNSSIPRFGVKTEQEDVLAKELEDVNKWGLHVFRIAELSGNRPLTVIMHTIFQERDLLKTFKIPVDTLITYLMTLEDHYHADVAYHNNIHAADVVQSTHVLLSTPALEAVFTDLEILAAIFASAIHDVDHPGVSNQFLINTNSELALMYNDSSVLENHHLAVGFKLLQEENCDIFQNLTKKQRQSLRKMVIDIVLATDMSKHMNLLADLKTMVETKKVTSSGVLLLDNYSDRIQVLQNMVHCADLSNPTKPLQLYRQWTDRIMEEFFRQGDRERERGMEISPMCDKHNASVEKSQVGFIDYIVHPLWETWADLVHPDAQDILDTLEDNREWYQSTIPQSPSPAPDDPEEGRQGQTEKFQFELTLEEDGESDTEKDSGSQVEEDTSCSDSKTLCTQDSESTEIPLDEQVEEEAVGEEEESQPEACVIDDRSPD
Human PDE4A3, sequence (P27815 other isoform, or with tags, fused parts or gaps): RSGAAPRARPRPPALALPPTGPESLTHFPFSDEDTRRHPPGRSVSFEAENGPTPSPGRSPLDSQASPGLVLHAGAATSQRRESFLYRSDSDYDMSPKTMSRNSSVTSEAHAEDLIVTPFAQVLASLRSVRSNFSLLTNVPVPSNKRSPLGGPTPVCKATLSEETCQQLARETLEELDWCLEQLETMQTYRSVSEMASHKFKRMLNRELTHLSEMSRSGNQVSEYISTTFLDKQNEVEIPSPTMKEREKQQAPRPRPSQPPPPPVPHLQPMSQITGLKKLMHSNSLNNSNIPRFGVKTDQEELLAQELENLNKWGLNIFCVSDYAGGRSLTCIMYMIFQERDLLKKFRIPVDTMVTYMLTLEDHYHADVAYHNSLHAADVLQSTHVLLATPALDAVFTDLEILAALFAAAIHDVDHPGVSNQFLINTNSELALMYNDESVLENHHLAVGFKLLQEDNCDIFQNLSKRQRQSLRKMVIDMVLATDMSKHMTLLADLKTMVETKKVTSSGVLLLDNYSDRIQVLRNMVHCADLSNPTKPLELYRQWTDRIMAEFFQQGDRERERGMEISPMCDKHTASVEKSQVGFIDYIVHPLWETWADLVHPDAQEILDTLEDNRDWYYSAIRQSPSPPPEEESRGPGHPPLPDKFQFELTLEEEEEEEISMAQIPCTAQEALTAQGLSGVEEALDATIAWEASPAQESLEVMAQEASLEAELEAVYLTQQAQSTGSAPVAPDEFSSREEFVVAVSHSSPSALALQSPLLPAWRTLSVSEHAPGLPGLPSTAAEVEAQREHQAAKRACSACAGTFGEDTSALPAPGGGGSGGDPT

Consider `Cc1nccc(-c2c3n(c4cccnc24)CCN(C2CC2)C3=O)n1` [Example 81, 8-Cyclopropyl-10-(2-methylpyrimidin-4-yl)-7,8-dihydropyrido [2′,3′:4,5] pyrrolo[1,2-a]pyrazin-9(6H)-one], for which the pIC50 at Human PDE4C1 is 4.53; on Human PDE4A3, under 4.52; at Human PDE4B1 it was under 4.52; on human PDE4D3, under 4.52.
For the molecule `Cc1csc(-c2c3n(c4cccnc24)CCN(C2CC2)C3=O)n1` [Example 82, 8-Cyclopropyl-10-(4-methylthiazol-2-yl)-7,8-dihydropyrido[2′,3′:4,5]pyrrolo[1,2-a]pyrazin-9(6H)-one], the pIC50 on Human PDE4C1 is 5.32; on Human PDE4A3 it was 4.95; on Human PDE4B1, 4.73; at human PDE4D3, under 4.52.
Taken in the same sequence, the figures for `Cc1cccnc1-c1c2n(c3cccnc13)CCN(C1CC1)C2=O` [Example 84, 8-Cyclopropyl-10-(3-methylpyridin-2-yl)-7,8-dihydropyrido[2′,3′:4,5]pyrrolo[1,2-a]pyrazin-9(6H)-one] were under 4.52, 4.81, under 4.59 and under 4.52.
On the same counts, the results for `CN(C)S(=O)(=O)c1cccc(-c2c3n(c4cccnc24)CCN(C2CC2)C3=O)c1` [Example 85, 3-(8-Cyclopropyl-9-oxo-6,7,8,9-tetrahydropyrido[2′,3′:4,5]pyrrolo[1,2-a]pyrazin-10-yl)-N,N-dimethylbenzenesulfonamide] are 5.30, 6.60, 6.36 and 6.14.
Turning to `O=C1c2c(C3CCCC3)c3ncccc3n2CCN1C1CC1` [Example 86, 10-Cyclopentyl-8-cyclopropyl-7,8-dihydropyrido[2′,3′:4,5]pyrrolo[1,2-a]pyrazin-9(6H)-one], the pIC50 at Human PDE4C1 was 7.74; on Human PDE4A3 it was 8.60; on Human PDE4B1, 8.58; on human PDE4D3, 7.54.
Taken in the same sequence, the figures for `Cc1nc(-c2c3n(c4cccnc24)CCN(C2CC2)C3=O)cs1` [Example 88, 8-Cyclopropyl-10-(2-methylthiazol-4-yl)-7,8-dihydropyrido[2′,3′:4,5]pyrrolo[1,2-a]pyrazin-9(6H)-one] were 5.07, 5.09, 4.96 and 4.79.
As for `Cn1cc(-c2c3n(c4cccnc24)CCN(C2CC2)C3=O)cn1` [Example 91, 8-Cyclopropyl-10-(1-methyl-1H-pyrazol-4-yl)-7,8-dihydropyrido[2′,3′:4,5]pyrrolo[1,2-a]pyrazin-9(6H)-one], the pIC50 was 5.63 at Human PDE4C1, 6.05 at Human PDE4A3, 5.56 at Human PDE4B1 and 5.35 at human PDE4D3.
Taken in the same sequence, the figures for `Cn1ncc(Cl)c1-c1c2n(c3cccnc13)CCN(C1CC1)C2=O` [Example 93, 10-(4-Chloro-1-methyl-1H-pyrazol-5-yl)-8-cyclopropyl-7,8-dihydropyrido[2′,3′:4,5]pyrrolo[1,2-a]pyrazin-9(6H)-one] were 5.16, 4.62, under 4.61 and under 4.52.
Taken in the same sequence, the figures for `CS(=O)(=O)c1cccc(-c2c3n(c4cccnc24)CCN(C2CC2)C3=O)c1` [Example 94, 8-Cyclopropyl-10-(3-(methylsulfonyl)phenyl)-7,8-dihydropyrido[2′,3′:4,5]pyrrolo[1,2-a]pyrazin-9(6H)-one] were 5.98, 6.14, 6.33 and 6.07.
On the same counts, the results for `CCCc1cnc(N2CCn3c(c(-c4ccc(Cl)cc4)c4ncccc43)C2=O)nc1` [Example 95, 10-(4-Chlorophenyl)-8-(5-propylpyrimidin-2-yl)-7,8-dihydropyrido[2′,3′:4,5]pyrrolo[1,2-a]pyrazin-9(6H)-one] are 6.19, 6.46, 5.72 and 5.72.
On to `COCCCCCCN1CCn2c(c(-c3ccc(Cl)cc3)c3ncccc32)C1=O` [Example 96, 10-(4-Chlorophenyl)-8-(6-methoxyhexyl)-7,8-dihydropyrido[2′,3′:4,5]pyrrolo[1,2-a]pyrazin-9(6H)-one], for which the pIC50 on Human PDE4C1 is 7.28; at Human PDE4A3, 7.06; at Human PDE4B1 it was 7.01; on human PDE4D3, 6.86.
On to `CCCc1ccnc(N2CCn3c(c(-c4ccc(Cl)cc4)c4ncccc43)C2=O)n1` [Example 97, 10-(4-Chlorophenyl)-8-(4-propylpyrimidin-2-yl)-7,8-dihydropyrido[2′,3′:4,5]pyrrolo[1,2-a]pyrazin-9(6H)-one], for which the pIC50 at Human PDE4C1 is 6.28; on Human PDE4A3 it was 6.54; at Human PDE4B1, 5.98; at human PDE4D3 it was 5.95.
